Columns and labels:
Format in all cases: biochemical
CDK4/CyclinD1 = target: T1, CDK4/CyclinD1 (Homo sapiens, UniProt P11802); assay: CDK4/CyclinD1 ChEF Assay (AQT, Table C); conditions: read-out: CDK4/CCND1 AQT Ki: Average Ki
T1 construct: Wild-type, full length CDK4 in complex with wildtype, CyclinD1: ThermoFisher Cat #PR8064A; purchased ThermoFisher PR8064A
Experimental: (§1) 16 nL of 1000× compound in 100% DMSO is added to a 384-well low volume, black assay plate. 12 μL of 1.3×CDK4/CyclinD1 (Wild-type, full length CDK4 in complex with wildtype, CyclinD1: ThermoFisher Cat #PR8064A) diluted in assay buffer (54 mM Hepes, 0.012% Brij-35, 10 mM MgCl2, 0.55 mM EGTA, 1% Glycerol, 0.02% BSA, and 1.2 mM DTT) is added to the plates on top of the compound and pre-incubated for 30 minutes at room temperature. Following the incubation, 4 uL of 4×Sox-chromophore (CSox) labeled peptide substrate (AQT0258, AssayQuant) & ATP diluted in assay buffer is added to the plate to initiate the reaction. The assay is incubated at room temperature for 150 min after initiation. The CSox peptide substrate is phosphorylated by CDK4/D1 upon ATP hydrolysis.
(§2) The fluorescent intensity measurement of the assay plate is read on a microplate reader once the assay is initiated and again at the completion of the assay. Phosphorylation of the CSox-based peptide substrate sensor results in an immediate increase in fluorescence. These raw fluorescence intensity values are normalized to calculate percent inhibition, which are fit to a four-parameter logistic curve and IC50 values are calculated. IC50 values are converted to Ki using substrate, KM^ap values, and the Cheng-Prusoff equation.

CDK6/CyclinD3 [1] = target: T2, CDK6/CyclinD3 (Homo sapiens, UniProt Q00534); assay: CDK6/CyclinD3 ChEF Assay (AQT, Table C); conditions: read-out: CDK6/CCND3 AQT Ki: Average Ki
T2 construct: Wild-type, full length CDK6 in complex with wildtype, full length CyclinD3: Carna Cat #04-107; purchased Carna 04-107
T2 sequence (Q00534 whole entry): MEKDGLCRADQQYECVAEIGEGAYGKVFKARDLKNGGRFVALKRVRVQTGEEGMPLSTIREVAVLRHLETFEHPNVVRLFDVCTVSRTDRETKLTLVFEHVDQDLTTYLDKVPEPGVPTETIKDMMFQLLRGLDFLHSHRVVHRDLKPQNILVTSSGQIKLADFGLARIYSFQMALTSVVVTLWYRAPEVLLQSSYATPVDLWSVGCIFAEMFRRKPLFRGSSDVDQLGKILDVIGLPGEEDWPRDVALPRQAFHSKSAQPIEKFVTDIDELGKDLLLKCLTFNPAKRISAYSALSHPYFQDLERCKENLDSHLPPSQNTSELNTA
T2 sequence (P30281 whole entry partner): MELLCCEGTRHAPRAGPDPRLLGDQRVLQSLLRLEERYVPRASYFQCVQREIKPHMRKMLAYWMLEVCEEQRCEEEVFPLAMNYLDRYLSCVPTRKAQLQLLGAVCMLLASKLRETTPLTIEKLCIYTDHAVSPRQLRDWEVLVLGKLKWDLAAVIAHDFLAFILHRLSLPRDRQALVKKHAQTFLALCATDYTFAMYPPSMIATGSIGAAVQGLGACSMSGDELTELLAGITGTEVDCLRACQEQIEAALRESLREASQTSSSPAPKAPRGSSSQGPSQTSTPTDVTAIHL
Experimental: as §1, with “1.3×CDK6/CyclinD3” for “1.3×CDK4/CyclinD1”, “CDK6” for “CDK4”, “full length CyclinD3: Carna” for “CyclinD1: ThermoFisher”, “#04-107)” for “#PR8064A)”, “300” for “150”, “CDK6/D3” for “CDK4/D1”
as §2, with “KM^app” for “KM^ap”

CDK2/CyclinA2 = target: T3, CDK2/CyclinA2 (Homo sapiens, UniProt P24941); assay: CDK2/CyclinA2 ChEF Assay (AQT, Table C); conditions: 10xKm; for Ki: AQT ChEF, read-out: CDK2/CCNA2 AQT10xKm Ki: Average Ki; for CDK2/CCNA2 AQT10xKm Ki: CDK2/A2 Selectivity over CDK1/B1 / CDK2/CCNA2 AQT10xKm Ki: CDK2/A2 selectivity over CDK4/D1 / CDK2/CCNA2 AQT10xKm Ki: CDK2/A2 selectivity over CDK6/D3 / CDK2/CCNA2 AQT10xKm Ki: CDK2/A2 Selectivity over CDK9: AQT
T3 construct: Wild-type, full length CDK2 in complex with wildtype, full length CyclinA2: Carna Cat #04-103; purchased Carna 04-103
Experimental: 16 nL of 1000× compound in 100% DMSO is added to a 384-well low volume, black assay plate. 12 μL of 1.3×CDK2/CyclinA2 (Wild-type, full length CDK2 in complex with wildtype, full length CyclinA2: Carna Cat #04-103 diluted in assay buffer (54 mM Hepes, 0.012% Brij-35, 10 mM MgCl2, 0.55 mM EGTA, 1% Glycerol, 0.02% BSA, and 1.2 mM DTT) is added to the plates on top of the compound and pre-incubated for 30 minutes at room temperature. Following the incubation, 4 uL of 4×Sox-chromophore (CSox) labeled peptide substrate (AQT0297, AssayQuant) & ATP diluted in assay buffer is added to the plate to initiate the reaction. The assay is incubated at room temperature for 90 min after initiation. The CSox peptide substrate is phosphorylated by CDK2/A2 upon ATP hydrolysis.
as §2, with “KM^app” for “KM^ap”

CDK6/CyclinD3 [2] = target: T2, CDK6/CyclinD3; assay: CDK6/Cyclin D3 Mobility Shift Assay (Caliper, Table B); conditions: read-out: CDK6/CCND3 Caliper Ki: Average Ki
Experimental: 10 nL of 2000× compound in 100% DMSO is added to a 384-well polypropylene assay plate. 15 μL of 1.3×CDK6/D3 and 1.3× fluorescent substrate (Wild-type, full length CDK6 in complex with wildtype, full length CyclinD3: Carna Cat #04-107 and FL-Peptide 34: PerkinElmer Cat #760643) diluted in kinase buffer (50 mM Hepes, 0.01% Brij-35, 10 mM MgCl2, 1 mM EGTA, 0.05% BSA, and 2 mM DTT) is added to the plates on top of the compound, mixed, and pre-incubated for 30 minutes at room temperature. The fluorescently labeled peptide substrate is phosphorylated by CDK6/D3 upon ATP hydrolysis. Following the incubation, 5 μL of 4×ATP diluted in kinase buffer is added to the plate to initiate the reaction. Following the 30-minute incubation, the reaction is stopped by adding 75 μL of stopping buffer containing 0.5 M EDTA.
The assay plate is then read on a Lab Chip EZ Reader which separates the fluorescently labeled substrate and product peptides through a mobility difference. The phosphorylation of the substrate imparts a negative charge, which allows differences in separation as both are pulled through the microfluidic chip. The ratio of substrate and product values are used to generate percent conversion. These raw percent conversion values are normalized to calculate percent inhibition, which are fit to a four-parameter logistic curve and IC50 values are calculated. IC50 values are converted to Ki through using substrate and Km^app values, and the Cheng-Prusoff equation.

T1 sequence (P11802 whole entry): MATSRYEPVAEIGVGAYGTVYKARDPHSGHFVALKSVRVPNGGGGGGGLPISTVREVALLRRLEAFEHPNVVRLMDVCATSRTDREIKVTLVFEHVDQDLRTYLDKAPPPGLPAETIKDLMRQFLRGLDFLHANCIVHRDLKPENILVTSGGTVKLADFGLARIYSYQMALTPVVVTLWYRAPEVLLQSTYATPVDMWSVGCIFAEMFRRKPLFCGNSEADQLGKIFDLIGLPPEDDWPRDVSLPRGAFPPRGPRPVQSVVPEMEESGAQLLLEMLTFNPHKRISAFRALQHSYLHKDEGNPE
T1 sequence (P24385 whole entry partner): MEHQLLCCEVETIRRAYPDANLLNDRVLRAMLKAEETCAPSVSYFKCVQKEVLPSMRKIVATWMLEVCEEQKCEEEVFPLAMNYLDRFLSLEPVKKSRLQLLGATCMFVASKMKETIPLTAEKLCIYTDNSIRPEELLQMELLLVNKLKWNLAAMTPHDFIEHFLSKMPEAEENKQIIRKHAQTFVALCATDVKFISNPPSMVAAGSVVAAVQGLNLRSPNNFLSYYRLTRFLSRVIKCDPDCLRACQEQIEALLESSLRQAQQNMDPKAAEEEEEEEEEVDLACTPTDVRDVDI

NS(=O)(=O)c1ccc2cc1OCCCCCNC(=O)O[C@@H]1CC[C@@H](C1)c1cnc(nc1)N2 (stereo in doubt) [Compound 105, rel-(2S,5R)-7-oxo-6,14-dioxa-8,20,22,25-tetraazatetracyclo[19.2.2.1^{2,5}.1^{15,19}]heptacosa-1(23),15,17,19(26),21,24-hexaene-16-sulfonamide]
Ki (CDK4/CyclinD1): ≥ 100 nM
Ki (CDK6/CyclinD3 [1]): ≥ 100 nM
Ki (CDK2/CyclinA2): < 1 nM
CDK2/CCNA2 AQT10xKm Ki: CDK2/A2 Selectivity over CDK1/B1 (CDK2/CyclinA2): A (A>10)
CDK2/CCNA2 AQT10xKm Ki: CDK2/A2 selectivity over CDK4/D1 (CDK2/CyclinA2): A (A>10)
CDK2/CCNA2 AQT10xKm Ki: CDK2/A2 selectivity over CDK6/D3 (CDK2/CyclinA2): A (A>10)
CDK2/CCNA2 AQT10xKm Ki: CDK2/A2 Selectivity over CDK9 (CDK2/CyclinA2): A (A>10)

O=C1NCCCCCCNS(=O)(=O)c2ccc(c(F)c2)Nc2cc([nH]n2)[C@H]2CC[C@H](C2)O1 [Compound 91, (1^1S,1^3R,Z)-4^2-fluoro-2^1H-15-oxa-5-thia-3,6,13-triaza-2(5,3)-pyrazola-4(1,4)-benzena-1(1,3)-cyclopentanacyclopentadecaphan-14-one 5,5-dioxide]
Ki (CDK4/CyclinD1): ≥ 100 nM
Ki (CDK6/CyclinD3 [2]): ≥ 100 nM
Ki (CDK6/CyclinD3 [1]): ≥ 100 nM
Ki (CDK2/CyclinA2): < 1 nM
CDK2/CCNA2 AQT10xKm Ki: CDK2/A2 Selectivity over CDK1/B1 (CDK2/CyclinA2): A (A>10)
CDK2/CCNA2 AQT10xKm Ki: CDK2/A2 selectivity over CDK4/D1 (CDK2/CyclinA2): A (A>10)
CDK2/CCNA2 AQT10xKm Ki: CDK2/A2 selectivity over CDK6/D3 (CDK2/CyclinA2): A (A>10)
CDK2/CCNA2 AQT10xKm Ki: CDK2/A2 Selectivity over CDK9 (CDK2/CyclinA2): A (A>10)

O=C1NCCCCCCCNS(=O)(=O)c2ccc(c(F)c2)Nc2cc([nH]n2)[C@H]2CC[C@H](C2)O1 [Compound 92]
Ki (CDK6/CyclinD3 [2]): 25 to 100 nM

O=C1NCCCCCCn2cc(cn2)S(=O)(=O)N2CCC(CC2)Nc2cc([nH]n2)[C@H]2CC[C@H](C2)O1 [Compound 97, (1^1S,1^3R,2^4Z,6^4E)-2^1H,6^1H-15-oxa-5-thia-3,13-diaza-4(4,1)-piperidina-2(5,3),6(4,1)-dipyrazola-1(1,3)-cyclopentanacyclopentadecaphan-14-one 5,5-dioxide]
Ki (CDK2/CyclinA2): < 1 nM
CDK2/CCNA2 AQT10xKm Ki: CDK2/A2 Selectivity over CDK1/B1 (CDK2/CyclinA2): A (A>10)
CDK2/CCNA2 AQT10xKm Ki: CDK2/A2 Selectivity over CDK9 (CDK2/CyclinA2): A (A>10)

O=C1NCCCCNS(=O)(=O)c2ccc(c(F)c2)Nc2cc([nH]n2)[C@H]2CC[C@H](C2)O1 [Compound 99, (1^1S, 1^3R,Z)-4^2-fluoro-2^1H-13-oxa-5-thia-3,6,11-triaza-2(5,3)-pyrazola-4(1,4)-benzena-1(1,3)-cyclopentanacyclotridecaphan-12-one 5,5-dioxide]
Ki (CDK6/CyclinD3 [2]): 25 to 100 nM

O=C1NCC=CCNS(=O)(=O)c2ccc(c(F)c2)Nc2cc([nH]n2)[C@H]2CC[C@H](C2)O1 [Compound 102, (1^1S,1^3R,2^4Z)-4^2-fluoro-2^1H-13-oxa-5-thia-3,6,11-triaza-2(5,3)-pyrazola-4(1,4)-benzena-1(1,3)-cyclopentanacyclotridecaphan-8-en-12-one 5,5-dioxide]
Ki (CDK6/CyclinD3 [2]): ≥ 100 nM

From patent US20260200943A1, “COMPOUNDS FOR TREATING CANCER” (Genesis Therapeutics, Inc., priority 2022, published 2026)
